Experimental data reported in BindingDB's records for doi:10.1016/j.bmc.2011.04.011 (University of Toyama, 2011).

Molecular target: T1, Lysosomal acid glucosylceramidase (Bos taurus, UniProt Q2KHZ8)
T1 sequence (Q2KHZ8 whole entry): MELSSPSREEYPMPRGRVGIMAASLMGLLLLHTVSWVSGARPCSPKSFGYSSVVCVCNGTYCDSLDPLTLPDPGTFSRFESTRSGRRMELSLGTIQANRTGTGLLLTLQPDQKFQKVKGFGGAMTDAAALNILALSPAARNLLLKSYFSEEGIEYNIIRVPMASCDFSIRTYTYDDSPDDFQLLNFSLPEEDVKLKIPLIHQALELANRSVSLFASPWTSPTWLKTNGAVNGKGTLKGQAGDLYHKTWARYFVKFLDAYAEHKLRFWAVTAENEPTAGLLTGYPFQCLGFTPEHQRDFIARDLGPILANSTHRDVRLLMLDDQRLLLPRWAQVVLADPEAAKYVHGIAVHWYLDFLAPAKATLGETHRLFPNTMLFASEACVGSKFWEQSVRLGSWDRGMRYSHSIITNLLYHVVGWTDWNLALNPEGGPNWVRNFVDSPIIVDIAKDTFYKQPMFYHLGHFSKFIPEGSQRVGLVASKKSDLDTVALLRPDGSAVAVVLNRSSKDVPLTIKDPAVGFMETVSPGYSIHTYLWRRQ
Assay: Inhibition of bovine liver beta-glucosidase assessed as production of 4-methylumbelliferone using 4-methylumbelliferyl beta-D-glucoside as substrate by spectrophotometry

IC50 [µM] | Compound
611 | OC[C@@H]1CNC[C@H](O)[C@H]1O [L-Isofagomine]
5.6 | OC[C@H]1NCC[C@H](O)[C@@H]1O [3-epifagomine]
31 | OC[C@H]1CNC[C@@H](O)[C@@H]1O
250 | OC[C@H]1NCC[C@@H](O)[C@@H]1O [(2R,3R,4R)-2-Hydroxymethyl-piperidine-3,4-diol]
